Laboratory results as given in patent US12173018B2, “Penicillin-binding protein inhibitors” (priority 2018, dated 2024).
Values after ≈ are worked out from the molar mass of the structure shown. Like-named read-outs stand apart in the source and are kept apart here.

Experiments:
Format in all cases: cell-based
N. gonorrhoeae WHO F = experiment: Liquid broth MIC, N. gonorrhoeae WHO F; settings: Neisseria gonorrhoeae, read-out: Minimum Inhibitory Concentration, N. gonorrhoeae WHO F
How it was run: (§1)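 Visual MIC: lowest concentration well showing no bacterial growth after 40-42 h at 36° C in 5% CO2. Inoculum 5×10^5 CFU/mL from colonies swabbed into GC broth, set by OD600; compounds in 2-fold serial dilution.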

E. coli ATCC 25922 = experiment: Broth microdilution MIC, E. coli ATCC 25922; settings: Escherichia coli
How it was run: (§2)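 MIC = lowest concentration showing no visible growth after 16-20 h at 37° C. Cation-adjusted MH broth, 2-fold serial dilutions, starting inoculum 5×10^5 CFU/mL, per CLSI methods.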

[1] = tested on: N. gonorrhoeae ATCC 49226; experiment: Liquid broth MIC, N. gonorrhoeae ATCC 49226; settings: Neisseria gonorrhoeae
How it was run: as §1

E. coli 901C = experiment: microbe, parasite or virus in culture; settings: Escherichia coli; hyper-permeable E. coli 901C, broth microdilution; read-out: MIC E. coli 901C
How it was run: as §2

E. coli AG100A = experiment: microbe, parasite or virus in culture; settings: Escherichia coli, read-out: MIC E. coli AG100A
How it was run: as §2

K. pneumoniae UMM = experiment: microbe, parasite or virus in culture; settings: Klebsiella pneumoniae; K. pneumoniae UMM producing SHV-5 and KPC-2; read-out: MIC K. pneumoniae UMM
How it was run: as §2

E. coli D22 = experiment: microbe, parasite or virus in culture; settings: Escherichia coli; hyper-permeable E. coli D22, broth microdilution; read-out: MIC E. coli D22
How it was run: as §2

K. pneumoniae SI-117 = experiment: microbe, parasite or virus in culture; settings: Klebsiella pneumoniae, SI117, read-out: MIC K. pneumoniae SI-117
How it was run: as §2

[2] = N. gonorrhoeae WHO F, liquid broth
[3] = ATCC25922, E. coli ATCC 25922, broth microdilution, read-out: MIC E. coli 25922
[4] = ATCC49226, N. gonorrhoeae ATCC 49226, liquid broth, read-out: Minimum Inhibitory Concentration, N. gonorrhoeae ATCC 49226

SMILES | MIC (N. gonorrhoeae WHO F; [2]) [µg/mL] | MIC (E. coli ATCC 25922; [3]) [µg/mL] | MIC [1, 4] [µg/mL] | MIC (E. coli 901C) [µg/mL] | MIC (E. coli AG100A) [µg/mL] | MIC (K. pneumoniae UMM) [µg/mL] | MIC (E. coli D22) [µg/mL] | MIC (K. pneumoniae SI-117) [µg/mL] | MIC (N. gonorrhoeae WHO F) [µg/mL] | MIC (E. coli ATCC 25922; ATCC25922, read-out: MIC E. coli 25922) [µg/mL] | MIC ([1]; ATCC49226, read-out: Minimum Inhibitory Concentration, N. gonorrhoeae ATCC 49226) [µg/mL]
CS(=O)(=O)NCCN1CCN(C(=O)NC(C(=O)N[C@H]2Cc3cccc(C(=O)O)c3OB2O)c2ccc(O)c(O)c2Cl)C(=O)C1=O (stereo partly drawn) [Example 229, (3R)-3-(2-(2-chloro-3,4-dihydroxyphenyl)-2-(4-(2-(methylsulfonamido)ethyl)-2,3-dioxopiperazine-1-carboxamido)acetamido)-2-hydroxy-3,4-dihydro-2H-benzo[e][1,2]oxaborinine-8-carboxylic acid] | 4 to 8 (≈ 5.99 to 12 µM) | 8 to 16 | > 64 | 0.5 to 1 | 0.5 to 1 | 8 to 16 | 2 to 4 | 8 to 16 | – | – | –
NCCN1CCN(C(=O)N[C@@H](C(=O)N[C@H]2Cc3ccc(F)c(C(=O)O)c3OB2O)c2ncc(O)cc2F)C(=O)C1=O [Example 230, (R)-3-((R)-2-(4-(2-aminoethyl)-2,3-dioxopiperazine-1-carboxamido)-2-(3-fluoro-5-hydroxypyridin-2-yl)acetamido)-7-fluoro-2-hydroxy-3,4-dihydro-2H-benzo[e][1,2]oxaborinine-8-carboxylic acid] | 0.25 to 0.5 (≈ 0.434 to 0.868 µM) | 8 to 16 | 4 to 8 (≈ 6.94 to 13.9 µM) | 0.5 to 1 | 2 to 4 | 8 to 16 | 2 to 4 | 8 to 16 | – | – | –
NCCCN1CCN(C(=O)NC(C(=O)N[C@H]2Cc3cccc(C(=O)O)c3OB2O)c2ccc(O)c(O)c2Cl)C(=O)C1=O (stereo partly drawn) [Example 233, (3R)-3-(2-(4-(3-aminopropyl)-2,3-dioxopiperazine-1-carboxamido)-2-(2-chloro-3,4-dihydroxyphenyl)acetamido)-2-hydroxy-3,4-dihydro-2H-benzo[e][1,2]oxaborinine-8-carboxylic acid] | 4 to 8 (≈ 6.62 to 13.2 µM) | 8 to 16 | > 64 | 0.5 to 1 | 0.5 to 1 | 2 to 4 | 0.5 to 1 | 2 to 4 | – | – | –
CCN1C[C@H](CO)N(C(=O)NC(C(=O)N[C@H]2Cc3cccc(C(=O)O)c3OB2O)c2ncc(O)cc2F)C(=O)C1=O (stereo partly drawn) [Example 234, (3R)-3-(2-((R)-4-ethyl-6-(hydroxymethyl)-2,3-dioxopiperazine-1-carboxamido)-2-(3-fluoro-5-hydroxypyridin-2-yl)acetamido)-2-hydroxy-3,4-dihydro-2H-benzo[e][1,2]oxaborinine-8-carboxylic acid] | – | – | – | 2 to 4 | 8 to 16 | 32 to 64 | 8 to 16 | > 128 | 0.25 to 0.5 (≈ 0.436 to 0.872 µM) | > 128 | 16 to 32 (≈ 27.9 to 55.8 µM)
CCNC(=O)NCCN1CCN(C(=O)NC(C(=O)N[C@H]2Cc3cccc(C(=O)O)c3OB2O)c2ccc(O)c(O)c2Cl)C(=O)C1=O (stereo partly drawn) [Example 235, (3R)-3-(2-(2-chloro-3,4-dihydroxyphenyl)-2-(4-(2-(3-ethylureido)ethyl)-2,3-dioxopiperazine-1-carboxamido)acetamido)-2-hydroxy-3,4-dihydro-2H-benzo[e][1,2]oxaborinine-8-carboxylic acid] | 1 to 2 (≈ 1.51 to 3.03 µM) | 32 to 64 | > 64 | 2 to 4 | 2 to 4 | 2 to 4 | 2 to 4 | 8 to 16 | – | – | –
NCCCN1CCN(C(=O)N[C@@H](C(=O)N[C@H]2Cc3ccc(F)c(C(=O)O)c3OB2O)c2ccc(O)c(O)c2Cl)C(=O)C1=O [Example 236, (R)-3-((R)-2-(4-(3-aminopropyl)-2,3-dioxopiperazine-1-carboxamido)-2-(2-chloro-3,4-dihydroxyphenyl)acetamido)-7-fluoro-2-hydroxy-3,4-dihydro-2H-benzo[e][1,2]oxaborinine-8-carboxylic acid] | 1 to 2 (≈ 1.61 to 3.22 µM) | 0.5 to 1 | 16 to 32 (≈ 25.7 to 51.5 µM) | 0.5 to 1 | 0.5 to 1 | 0.5 to 1 | 0.5 to 1 | 0.5 to 1 | – | – | –
